Read-outs that look alike come from different tables or passages of the source.
Legend:
[1] = test system: KM12; assay: NCI in vitro five dose anticancer assay; type: cell-based, human
[2] = molecular target: PI3K-β (Homo sapiens, UniProt P42338); assay: PI3K biochemical assay
[3] = test system: SR; assay: NCI in vitro five dose anticancer assay; type: cell-based, human
[4] = test system: ACHN; assay: NCI in vitro five dose anticancer assay; type: cell-based, human
[5] = test system: EKVX; assay: NCI in vitro five dose anticancer assay; type: cell-based, human
[6] = test system: MCF7; assay: NCI in vitro five dose anticancer assay; type: cell-based, human
[7] = test system: HS 578T; assay: NCI in vitro five dose anticancer assay; type: cell-based, human
[8] = test system: U251; assay: NCI in vitro five dose anticancer assay; type: cell-based, human
[9] = test system: SW-620; assay: NCI in vitro five dose anticancer assay; type: cell-based, human
[10] = test system: NCI 60 cell lines; assay: NCI single dose; type: cell-based, human; conditions: 48 h
[11] = test system: HOP-62; assay: NCI in vitro five dose anticancer assay; type: cell-based, human
[12] = test system: OVCAR-4; assay: NCI in vitro five dose anticancer assay; type: cell-based, human
[13] = test system: NCI-H322M; assay: NCI in vitro five dose anticancer assay; type: cell-based, human
[14] = test system: A549 cells; assay: Cell cycle analysis by flow cytometry; type: cell-based, human; conditions: 24 h
[15] = test system: HCT-15; assay: NCI in vitro five dose anticancer assay; type: cell-based, human
[16] = test system: SK-OV-3; assay: NCI in vitro five dose anticancer assay; type: cell-based, human
[17] = test system: UO-31; assay: NCI in vitro five dose anticancer assay; type: cell-based, human
[18] = test system: HCC-2998; assay: NCI in vitro five dose anticancer assay; type: cell-based, human
[19] = test system: NCI-H23; assay: NCI in vitro five dose anticancer assay; type: cell-based, human
[20] = test system: Bcl-2, Bax, and cleaved caspases (3, 8, and 9) in A549 cells; assay: Western blotting, apoptosis markers; type: cell-based, human; conditions: 48 h, 1, 3 and 6 μM, western blot; for levels of Bax / levels of cleaved caspase 3 / levels of cleaved caspase 9: dose-dependent
[21] = test system: A498; assay: NCI in vitro five dose anticancer assay; type: cell-based, human
[22] = test system: BT-549; assay: NCI in vitro five dose anticancer assay; type: cell-based, human
[23] = test system: SK-MEL-5; assay: NCI in vitro five dose anticancer assay; type: cell-based, human
[24] = test system: UACC-257; assay: NCI in vitro five dose anticancer assay; type: cell-based, human
[25] = test system: K-562 cells; assay: Cell cycle analysis by flow cytometry; type: cell-based, human; conditions: 24 h
[26] = test system: PC-3; assay: NCI in vitro five dose anticancer assay; type: cell-based, human
[27] = test system: DU-145; assay: NCI in vitro five dose anticancer assay; type: cell-based, human
[28] = test system: SF-295; assay: NCI in vitro five dose anticancer assay; type: cell-based, human
[29] = test system: Bax and cleaved caspases (3, 8, and 9) in K-562 cells; assay: Western blotting, apoptosis markers; type: cell-based, human; conditions: 24 h, 1, 3 and 6 μM, western blot; for levels of Bax / levels of cleaved caspase 3 / levels of cleaved caspase 9: dose-dependent
[30] = test system: HCT-116; assay: NCI in vitro five dose anticancer assay; type: cell-based, human
[31] = test system: p-PI3K, p-Akt, p-mTOR and p-GSK-3β in A549 cells; assay: Western blotting, PI3K/Akt/mTOR pathway; type: cell-based, human; conditions: 1, 3, or 6 μM, western blot, dose-dependent
[32] = test system: OVCAR-8; assay: NCI in vitro five dose anticancer assay; type: cell-based, human
[33] = test system: SNB-75; assay: NCI in vitro five dose anticancer assay; type: cell-based, human
[34] = test system: RPMI-8226; assay: NCI in vitro five dose anticancer assay; type: cell-based, human
[35] = test system: LOX IMVI; assay: NCI in vitro five dose anticancer assay; type: cell-based, human
[36] = Non-small cell lung cancer, five dose assay
[37] = Ovarian cancer, five dose assay
[38] = Prostate cancer, five dose assay

PI3K-β, sequence (P42338 whole entry): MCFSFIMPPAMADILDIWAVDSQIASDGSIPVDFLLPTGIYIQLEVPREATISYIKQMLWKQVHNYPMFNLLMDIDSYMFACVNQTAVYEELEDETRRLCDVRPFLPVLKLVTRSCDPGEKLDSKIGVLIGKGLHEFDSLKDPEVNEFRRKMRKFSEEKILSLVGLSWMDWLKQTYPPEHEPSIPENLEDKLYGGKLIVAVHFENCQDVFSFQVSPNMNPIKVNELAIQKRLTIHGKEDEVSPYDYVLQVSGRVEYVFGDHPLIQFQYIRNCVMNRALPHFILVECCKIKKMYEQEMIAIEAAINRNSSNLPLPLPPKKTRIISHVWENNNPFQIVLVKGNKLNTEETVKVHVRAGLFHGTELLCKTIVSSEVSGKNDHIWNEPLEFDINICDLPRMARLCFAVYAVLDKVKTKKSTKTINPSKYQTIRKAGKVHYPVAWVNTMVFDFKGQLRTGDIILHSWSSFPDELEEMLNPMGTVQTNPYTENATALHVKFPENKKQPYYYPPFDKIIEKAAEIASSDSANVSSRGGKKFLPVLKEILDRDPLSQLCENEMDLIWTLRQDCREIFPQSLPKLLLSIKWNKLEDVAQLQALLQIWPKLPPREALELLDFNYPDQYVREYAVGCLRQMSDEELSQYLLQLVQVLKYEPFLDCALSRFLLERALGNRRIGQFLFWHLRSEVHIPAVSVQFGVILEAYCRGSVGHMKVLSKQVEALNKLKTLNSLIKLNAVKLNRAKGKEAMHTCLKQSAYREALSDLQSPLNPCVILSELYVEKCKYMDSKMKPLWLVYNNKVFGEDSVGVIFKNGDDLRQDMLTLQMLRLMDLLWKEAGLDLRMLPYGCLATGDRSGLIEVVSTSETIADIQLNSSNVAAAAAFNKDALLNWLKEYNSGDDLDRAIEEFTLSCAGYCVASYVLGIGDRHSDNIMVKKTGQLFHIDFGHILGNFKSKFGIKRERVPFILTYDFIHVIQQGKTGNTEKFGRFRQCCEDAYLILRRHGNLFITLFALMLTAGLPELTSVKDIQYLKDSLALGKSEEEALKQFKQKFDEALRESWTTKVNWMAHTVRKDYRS
PI3K-β, sequence (P27986 whole entry partner): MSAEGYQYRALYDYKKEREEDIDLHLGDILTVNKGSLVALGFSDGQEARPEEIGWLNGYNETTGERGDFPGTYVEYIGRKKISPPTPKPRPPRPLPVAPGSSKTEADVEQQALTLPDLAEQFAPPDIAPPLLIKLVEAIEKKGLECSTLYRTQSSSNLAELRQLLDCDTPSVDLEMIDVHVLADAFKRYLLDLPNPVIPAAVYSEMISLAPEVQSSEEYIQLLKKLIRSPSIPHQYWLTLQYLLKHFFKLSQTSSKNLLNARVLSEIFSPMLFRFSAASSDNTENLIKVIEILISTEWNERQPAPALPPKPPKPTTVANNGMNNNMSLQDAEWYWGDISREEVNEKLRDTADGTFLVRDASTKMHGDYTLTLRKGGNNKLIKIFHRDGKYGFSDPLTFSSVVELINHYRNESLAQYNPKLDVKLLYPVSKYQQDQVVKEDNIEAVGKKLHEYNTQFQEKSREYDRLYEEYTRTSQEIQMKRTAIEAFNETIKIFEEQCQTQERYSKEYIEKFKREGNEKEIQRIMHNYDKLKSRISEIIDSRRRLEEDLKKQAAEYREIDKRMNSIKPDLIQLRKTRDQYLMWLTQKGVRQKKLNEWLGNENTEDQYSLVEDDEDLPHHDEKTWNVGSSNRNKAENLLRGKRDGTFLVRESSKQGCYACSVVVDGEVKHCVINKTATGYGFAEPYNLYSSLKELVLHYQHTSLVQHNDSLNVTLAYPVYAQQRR

## COc1ccc(-c2cc(C(=O)NN=C(/C=C\c3ccc(Cl)cc3)c3ccc(N)cc3)c3ccccc3n2)cc1 [Compound 9i, N’-((Z)-1-(4-Aminophenyl)-3-(4-chlorophenyl)allylidene)-2-(4-methoxphenyl)quinoline-4-carbohydrazide]
[1]; Colon cancer, five dose assay
  GI50: 1.15 µM
[2]; read-out: IC50 (nM) PI3K-β, ADP-Glo, ATP 30 μM
  IC50: 296 nM
[3]; Leukemia, five dose assay
  GI50: 0.595 µM
[4]; Renal cancer, five dose assay
  GI50: 1.47 µM
[5]; [36]
  GI50: 3.78 µM
[6]; Breast cancer, five dose assay
  GI50: 0.442 µM
[7]; Breast cancer, HS 578T, five dose assay
  GI50: 1.05 µM
[8]; CNS cancer, U251, five dose assay
  GI50: 2.18 µM
[9]; Colon cancer, five dose assay
  GI50: 1.24 µM
[10]; 10 μM single dose, mean over NCI 60 cell lines
  mean growth inhibition: 73.03%
[11]; [36]
  GI50: 3.21 µM
[12]; [37]
  GI50: 1.82 µM
[13]; [36]
  GI50: 6 µM
[14]; 1 μM
  percentage of cells in the G2/M phase: 11%
[14]; 3 μM
  percentage of cells in the G2/M phase: 61.2%
[14]; 6 μM
  percentage of cells in the G2/M phase: 76.2%
[15]; Colon cancer, five dose assay
  GI50: 1.03 µM
[16]; [37]
  GI50: 3.32 µM
[17]; Renal cancer, five dose assay
  GI50: 1.55 µM
[18]; Colon cancer, HCC-2998, five dose assay
  GI50: 3.4 µM
[19]; [36]
  GI50: 3.14 µM
[20]
  levels of Bcl-2: decreased
  levels of cleaved caspase 8: not altered
  levels of Bax: increased
  levels of cleaved caspase 3: increased
  levels of cleaved caspase 9: increased
[21]; Renal cancer, five dose assay
  GI50: 0.375 µM
[22]; Breast cancer, five dose assay
  GI50: 2.04 µM
[23]; Melanoma, five dose assay
  GI50: 0.701 µM
[24]; Melanoma, five dose assay
  GI50: > 100 µM
[25]; 1 μM
  percentage of cells in the G2/M phase: 2.95%
[25]; 3 μM
  percentage of cells in the G2/M phase: 30.7%
[25]; 6 μM
  percentage of cells in the G2/M phase: 49.3%
[26]; [38]
  GI50: 2.03 µM
[27]; [38]
  GI50: 3.16 µM
[28]; CNS cancer, five dose assay
  GI50: 0.54 µM
[29]
  levels of cleaved caspase 8: not change
  levels of Bax: increased
  levels of cleaved caspase 3: increased
  levels of cleaved caspase 9: increased
[30]; Colon cancer, five dose assay
  GI50: 1.41 µM
[31]
  levels of phosphorylated Akt (at Ser473): decreases
  levels of phosphorylated GSK-3β: decreases
  levels of phosphorylated PI3K (at Tyr458): decreases
  levels of phosphorylated mTOR (at Ser2448): decreases
[32]; [37]
  GI50: 4.16 µM
[33]; CNS cancer, five dose assay
  GI50: 0.371 µM
[34]; Leukemia, five dose assay
  GI50: 3.86 µM
[35]; Melanoma, five dose assay
  GI50: 1.56 µM

## Cc1ccc(-c2cc(C(=O)NN=C(/C=C\c3ccc(Cl)cc3)c3ccc(N)cc3)c3ccccc3n2)cc1 [Compound 9j, N’-((Z)-1-(4-Aminophenyl)-3-(4-chlorophenyl)allylidene)-2-(4-methylphenyl)quinoline-4-carbohydrazide]
[1]; Homo sapiens
  GI50: 3.46 µM
[2]
  IC50: 360 nM
[3]; Homo sapiens
  GI50: 3.29 µM
[4]; Homo sapiens
  GI50: 4.19 µM
[5]; Homo sapiens
  GI50: 3.99 µM
[6]; Homo sapiens
  GI50: 2.53 µM
[7]; Homo sapiens, Hs-578T
  GI50: 4.68 µM
[8]; Homo sapiens, U-251
  GI50: 4.51 µM
[9]; Homo sapiens
  GI50: 4.24 µM
[10]; Homo sapiens, 60 cell, read-out: mean growth inhibition
  inhibition at 10 µM: 74%
[11]; Homo sapiens
  GI50: 4.62 µM
[12]; Homo sapiens
  GI50: 4.71 µM
[13]; Homo sapiens
  GI50: 4.73 µM
[14]; 1 μM
  percentage of cells in the G2/M phase: 6.22%
[14]; 3 μM
  percentage of cells in the G2/M phase: 15.8%
[14]; 6 μM
  percentage of cells in the G2/M phase: 59.6%
[15]; Homo sapiens
  GI50: 3.33 µM
[16]; Homo sapiens
  GI50: 4.94 µM
[17]; Homo sapiens
  GI50: 2.2 µM
[18]; Homo sapiens, HCC 2998
  GI50: 4.28 µM
[19]; Homo sapiens
  GI50: 5.02 µM
[20]
  levels of Bcl-2: decreased
  levels of cleaved caspase 8: not altered
  levels of Bax: increased
  levels of cleaved caspase 3: increased
  levels of cleaved caspase 9: increased
[21]; Homo sapiens
  GI50: 1.64 µM
[22]; Homo sapiens
  GI50: 3.92 µM
[23]; Homo sapiens
  GI50: 2.5 µM
[24]; Homo sapiens
  GI50: 33.7 µM
[25]; 1 μM
  percentage of cells in the G2/M phase: 5.1%
[25]; 3 μM
  percentage of cells in the G2/M phase: 16.6%
[25]; 6 μM
  percentage of cells in the G2/M phase: 41.7%
[26]; Homo sapiens
  GI50: 3.4 µM
[27]; Homo sapiens
  GI50: 3.68 µM
[28]; Homo sapiens
  GI50: 3.13 µM
[29]
  levels of cleaved caspase 8: not change
  levels of Bax: increased
  levels of cleaved caspase 3: increased
  levels of cleaved caspase 9: increased
[30]; Homo sapiens
  GI50: 3.18 µM
[31]
  levels of phosphorylated Akt (at Ser473): decreases
  levels of phosphorylated GSK-3β: decreases
  levels of phosphorylated PI3K (at Tyr458): decreases
  levels of phosphorylated mTOR (at Ser2448): decreases
[32]; Homo sapiens
  GI50: 5.25 µM
[33]; Homo sapiens
  GI50: 1.41 µM
[34]; Homo sapiens
  GI50: 4.1 µM
[35]; Homo sapiens
  GI50: 4 µM
